According to patent US20230052740A1, “MODULATORS OF CIRCADIAN RHYTHMS AND USES THEREOF” (The Regents of the University of California, priority 2019, published 2023):
Where two headings read alike, the source gives them in different places. Each block holds one molecule with its values, some of them ahead of it.

Legend:
hMT1 = hMT1 (Homo sapiens, UniProt P48039); assay: cAMP assay (GloSensor), isoproterenol-stimulated cAMP in HEK cells; format: cell-based; design: expressed in transfected cells; host or cells: HEK-T (HEK-293 T) cells, co-transfected with GloSensor DNA
Procedure: HEK-293 T cells were maintained with complete Dulbecco's modified Eagle's medium (DMEM), which is composed of 10% fetal bovine serum (FBS), 2 mM L-glutamine, 100 units/ml penicillin G, 100 μg/ml streptomycin at 37° C. in the presence of 5% CO2
(§1) MT1 and MT2 receptors were tested using Promega's spilt luciferase based GboSensor cAMP biosensor technology. HEK-T cells were plated in 15 cm cell culture dish (at a density of 18 million cells) containing DMEM composed of 10% dialyzed FBS, 2 mM L-glutamine, 100 units/ml penicillin G, 100 μg/ml streptomycin for 4-6 hour. Then, cells were co-transfected with 8 μg of construct which encodes either MT1 or MT2 (de-Tangonized constructs) and […] of Glosensor DNA. Next day, transfected cells were seeded into poly-L-lysinecoated 384-well white clear bottom cell culture plates with complete DMEM with 1% dialized FBS at a density of 20,000 cells per well for another 24 h. The next day, cell medium were discarded and loaded with 20 μl of assay buffer (1×HBSS, 20 mM HEPES, pH 7.4, 0.1% BSA). To measure agonist activity of MT1 or MT2 receptor, 10 μl of test compound solution at 3× final concentration was added for 15 minutes followed by addition of 10 μl of luciferin/isoproterenol mixture (at a final concentration of 4 mM and 200 nM respectively) for another 15 mins for luminescence quantification. Then, plates were counted using SpectraMax luminescence reader (Molecular Device). Data were analyzed using GraphPad Prism 6.0.

MT2 = molecular target: T1, MT2 (Homo sapiens, UniProt P49286); assay: as above; format: cell-based; design: expressed in transfected cells; host or cells: HEK-T (HEK-293 T) cells, co-transfected with GloSensor DNA; MT2 activity: dose or concentration left out as unconfirmed; settings: for MT2 pEC50: Table 2
T1 sequence (P49286 1-362): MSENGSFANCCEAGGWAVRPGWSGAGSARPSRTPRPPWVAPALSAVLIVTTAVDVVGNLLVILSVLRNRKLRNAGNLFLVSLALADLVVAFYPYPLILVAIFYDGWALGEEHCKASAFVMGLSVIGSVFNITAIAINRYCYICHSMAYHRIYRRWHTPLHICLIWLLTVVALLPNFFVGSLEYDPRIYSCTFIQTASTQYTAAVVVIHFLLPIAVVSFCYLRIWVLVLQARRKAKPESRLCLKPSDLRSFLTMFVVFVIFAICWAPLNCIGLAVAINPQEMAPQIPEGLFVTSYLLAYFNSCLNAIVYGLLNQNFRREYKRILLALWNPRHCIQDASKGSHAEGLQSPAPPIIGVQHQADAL
Procedure: as §1, with “Next day, transfected cells were seeded into poly-L-lysinecoated 384-well white clear bottom cell culture plates with complete DMEM with 1% dialized FBS at a density of 20,000 cells per well for another 24 h.” left out

[1] = HEK293, Table 1, agonist, normalized to melatonin response, read-out: MT1 % Emax (converted)
[2] = HEK293, Table 2, cell marked Inverse (inverse agonist), read-out: MT1 % Emax (converted)
[3] = Table 2, cell marked Inverse (inverse agonist)
[4] = HEK293, Table 2, cell marked Inverse (inverse agonist), read-out: MT2 % Emax (converted)
[5] = cell marked Inverse (inverse agonist)
[6] = Table 1, agonist, normalized to melatonin response
[7] = HEK293, Table 1, agonist, normalized to melatonin response, read-out: MT2 % Emax (converted)
[8] = panel of widely-used MTR ligands, in words
[9] = HEK293, Table 2, agonist, normalized to melatonin response, read-out: MT1 % Emax (converted)
[10] = HEK293, Table 2, agonist, normalized to melatonin response, read-out: MT2 % Emax (converted)

Chain of hMT1 (P48039 whole entry): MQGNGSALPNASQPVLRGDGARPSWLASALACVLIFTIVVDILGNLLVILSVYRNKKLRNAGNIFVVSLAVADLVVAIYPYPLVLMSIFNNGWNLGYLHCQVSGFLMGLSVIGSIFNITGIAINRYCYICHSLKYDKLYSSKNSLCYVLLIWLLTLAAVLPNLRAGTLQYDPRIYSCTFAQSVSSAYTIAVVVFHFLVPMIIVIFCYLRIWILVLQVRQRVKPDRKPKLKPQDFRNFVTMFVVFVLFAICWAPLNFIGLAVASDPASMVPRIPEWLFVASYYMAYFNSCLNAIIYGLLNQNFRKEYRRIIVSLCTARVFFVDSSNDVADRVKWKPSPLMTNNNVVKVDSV

Emax (hMT1; [1]): 88%
EC50 (hMT1; agonist, read-out: EC50 at MT1): 2000 to 6000 nM
MT2 activity (MT2): without detectable MT2 activity
SMILES: COc1ccc(CN(C(=O)C2CC2C)c2ccncc2)cc1 (stereo not drawn) [ZINC151209032]

SMILES: Clc1cc(Br)ccc1CNc1cccc(-c2nnc[nH]2)c1 [ZINC516666069]
Emax (hMT1; [2]): 42%
MT1 pEC50 (hMT1; [3]): 7.05 ± 0.03
Emax (MT2; [4]): 118%
MT2 pEC50 (MT2; [5]): 5.58 ± 0.04

selectivity for the MT1 v. the MT2 receptor type (hMT1): 2 fold
MT1 % Emax (hMT1; [6]): 99 ± 1%
Emax(%) at MT1 (hMT1; agonist): 99±1%
pEC50 at MT1 (hMT1; agonist): 9.00±0.15
MT2 % Emax (MT2; [6]): 83 ± 3%
SMILES: COC(=O)c1ccc(CSc2nnc(C3CC3)[nH]2)s1 [ZINC159050207]

SMILES: CCc1nc(SCc2cccc(C(=O)OC)c2)nc(O)c1C [ZINC576887661]
Emax (hMT1; [1]): 83%
MT1 pEC50 (hMT1; Table 1, agonist): 7.10 ± 0.19
Emax (MT2; [7]): 68%

efficacy at the MT2 receptor (MT2; [8]): partial agonism
SMILES: CC(=O)NCCc1c(Cc2ccccc2)[nH]c2ccccc12 [Luzindole, reference compound]

SMILES: COc1ccc(CNc2cccc(-n3nccn3)c2)cc1 [ZINC864032792]
Emax (hMT1; [9]): 57%
MT1 pEC50 (hMT1; Table 2, agonist): 7.49 ± 0.04
Emax (MT2; [4]): 35%
MT2 pEC50 (MT2; [5]): 6.66 ± 0.08

SMILES: CCOC(=O)c1nc(N(C)CC2CCCC2O)ccc1Br (stereo not drawn) [ZINC603324490]
Emax (hMT1; HEK293, Table 1, cell marked Inverse (inverse agonist), read-out: MT1 % Emax (converted)): 37%
MT1 pEC50 (hMT1; Table 1, cell marked Inverse (inverse agonist)): 5.92 ± 0.29
MT1 efficacy (hMT1; in the concentration range of its MT2 inverse agonism (600 nM)): without substantial MT1 efficacy
Emax (MT2; HEK293, Table 1, cell marked Inverse (inverse agonist), read-out: MT2 % Emax (converted)): 202%
EC50 (MT2; inverse agonist, read-out: EC50 at MT2): 600 nM

type selectivity (MT2; [8]): little type selectivity
SMILES: COc1ccc2cccc(CCNC(C)=O)c2c1 [agomelatine, reference compound]

Emax (hMT1; HEK293, Table 6, Inverse (inverse agonist), read-out: MT1 Emax): 30%
EC50 (hMT1; Table 6, Inverse (inverse agonist), read-out: MT1 pEC50 (converted)): 75.9 nM
SMILES: c1cc(NCc2ccc(C3CCC3)nc2)cc(-c2cc[nH]n2)c1 [Compound Z3668902476]

SMILES: COC(=O)c1sc(N(C)Cc2ccc(Cl)nc2)nc1Cl [ZINC92585174]
Emax (hMT1; [1]): 98%
MT1 pEC50 (hMT1; Table 1, agonist): 7.80 ± 0.17
Emax (MT2; [7]): 74%

SMILES: COCCN(Cc1ccc2c(c1)OCO2)c1nc(C(F)(F)F)ns1 [ZINC580731466]
Emax (hMT1; [1]): 71%
MT1 pEC50 (hMT1; Table 1, agonist): 5.70 ± 0.13
selectivity for the MT2 receptor (MT2): ~100 fold
Emax (MT2; [7]): 98%

SMILES: COc1ccc(CNc2cccnc2C)cc1C [ZINC91496083]
Emax (hMT1; [9]): 66%
MT1 pEC50 (hMT1; Table 2, agonist): 4.65 ± 0.44
Emax (MT2; [10]): 106%
MT2 pEC50 (MT2; agonist): 7.15 ± 0.17

SMILES: Clc1ccc(CNc2cccc(-c3nnc[nH]3)c2)c(Cl)c1 [ZINC157676497]
Emax (hMT1; [2]): 60%
MT1 pEC50 (hMT1; [3]): 7.32 ± 0.05
Emax (MT2; [4]): 62%
MT2 pEC50 (MT2; [5]): 6.01 ± 0.30

SMILES: COc1ccc(CNc2cccnc2)cc1 [ZINC5586789]
Emax (hMT1; [9]): 37%
MT1 pEC50 (hMT1; Table 2, agonist): 6.81 ± 0.72
Emax (MT2; [10]): 51%
MT2 pEC50 (MT2; agonist): 8.07 ± 0.15

Emax (MT2; HEK293, Table 5, read-out: MT2 Emax): 75 ± 5%
EC50 (MT2; Table 5, MT2 receptor agonists, read-out: MT2 pEC50 (converted)): 1.82 nM
SMILES: COc1ccc(C2CC2)c(CNc2cccnc2)c1

SMILES: COC(=O)c1ccc(I)c(Oc2ccnc(C)n2)c1 [ZINC432154404]
Emax (hMT1; [1]): 95%
MT1 pEC50 (hMT1; Table 1, agonist): 6.63 ± 0.17
Emax (MT2; [7]): 74%

type selectivity (MT2; [8]): little type selectivity
SMILES: CCC(=O)NCC[C@@H]1CCc2ccc3c(c21)CCO3 [ramelteon, reference compound]

SMILES: COC(=O)c1cc(Cn2nc(C)c(N)c2C)c(C)s1 [ZINC602421874]
Emax (hMT1; [9]): 51%
MT1 pEC50 (hMT1; Table 2, agonist): 4.70 ± 0.11
Emax (MT2; [10]): 66%
MT2 pEC50 (MT2; agonist): 5.35 ± 0.10
